Data from US10782295B2, “Cysteine-reactive ligand discovery in proteomes” (THE SCRIPPS RESEARCH INSTITUTE, priority 2013, dated 2020).

Legend:
Experiment in all cases: competitive isoTOP-ABPP, MDA-MB-231 soluble proteome
Assay type in all cases: binding
[1] = molecular target: T1, PSMB8 (Homo sapiens, UniProt P28062); settings: 100 μM LDE, 60 min; peptide LLSNMMC*QYR
T1 construct: directly in native proteomes; endogenous in cells; host or cells: MDA-MB-231
T1 sequence (P28062 73-276): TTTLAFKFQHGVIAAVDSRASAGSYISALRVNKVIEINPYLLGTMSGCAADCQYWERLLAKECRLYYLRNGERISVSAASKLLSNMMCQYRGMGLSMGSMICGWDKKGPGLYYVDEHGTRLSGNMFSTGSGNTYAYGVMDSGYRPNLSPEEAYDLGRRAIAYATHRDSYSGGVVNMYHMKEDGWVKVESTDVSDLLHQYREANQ
Description: (§1) Here, we envisioned that isoTOP-ABPP could be advanced to discover and quantify reactions between cysteines in proteomes and any electrophilic compound. In this advanced, ‘competitive’ version of isoTOP-ABPP (FIG. 1a), a proteome is treated with an electrophile (experimental sample) or DMSO (control sample). Both proteomic samples are then labeled with the IA probe and conjugated by CuAAC to light and heavy azide-biotin tags, respectively. The light and heavy samples are then mixed and subjected to our described isoTOP-ABPP protocol for enrichment, identification, and quantification of IA-labeled cysteines^30. Electrophile-modified cysteines are quantified by measuring the MS1 chromatographic peak ratios (R values) for heavy (DMSO-treated) over light (electrophile-treated) samples, with higher R values reflecting greater sensitivity to the electrophile. In this format, competitive isoTOP-ABPP can assay electrophiles against 1000+ cysteines in parallel directly in native proteomes without requiring any chemical modification to the electrophiles themselves.
(§2) Competitive isoTOP-ABPP experiments were performed in quadruplicate using the soluble proteome of the human breast cancer cell line MDA-MB-231 cell line. Proteomes were treated with 100 μM HNE, 15d-PGJ2, or 2-HD, for 60 minutes, followed by the IA-probe (100 μM, 60 min) A total of ˜1400 cysteine reactivities were quantified across the aggregate data set, with at least 900 cysteine reactivities quantified for each LDE (FIG. 2a) more than 750 of which were quantified for all the three electrophiles.
(§3) HNE was purchased from EMD biosciences, 15d-PGJ2 was purchased from Cayman Chemicals and 2-HD was purchased from Santa Cruz Biotechnology. Proteome samples were diluted to a 4 mg protein/mL solution in PBS. For each profiling experiment, one aliquot of the proteome sample (0.5 mL) was treated with 100 μM of LDE using 5 μL of a 10 mM stock and the other aliquot was treated with 5 μL of either ethanol (for HNE and 15d-PGJ2) or DMSO (for 2-HD) as control. For the concentration-dependent profiling experiments using HNE, aliquots of the proteomes (0.5 mL each) were treated with 5, 10, 50, 100 and 500 μM of HNE using 5 μL of 0.5, 1.0, 5, 10 and 50 mM of stock solution, respectively. After 60 minutes of treatment at room temperature, both the LDE-treated and control aliquots were passed through a NAP-5 Sephadex column (GE healthcare) to remove any unreacted LDE. The volume of each aliquot was increased to 1 mL with the concentration at 2 mg/mL after this step.
(§4) Each of the control and LDE-treated proteome samples (˜2 mg protein/mL in 1 mL volume) was treated with 100 μM of IA-probe using 10 μL of a 10 mM stock in DMSO. The labeling reactions were incubated at room temperature for 1 hour. Click chemistry (acetylene-azide cycloaddition) was performed by the addition of 100 μM of either the Heavy-TEV-Tag (for the control sample) or Light-TEV-Tag (for the LDE-treated sample) (20 μL of a 5 mM stock), 1 mM TCEP (fresh 50× stock in water), 100 μM ligand (17× stock in DMSO:t-Butanol 1:4) and 1 mM CuSO4 (50× stock in water). Samples were allowed to react at room temperature for 1 hour. After the click chemistry step, the light and heavy-labeled samples were mixed together and centrifuged (5900×g, 4 min, 4° C.) to pellet the precipitated proteins.
(§5) The pellets were washed twice in cold MeOH, after which the pellet was solubilized in PBS containing 1.2% SDS via sonication and heating (5 min, 80° C.). Samples were subjected to streptavidin enrichment of probe-labeled proteins, sequential on-bead trypsin and TEV digestion, and liquid chromatography-mass spectrometry (LC-MS) analysis according to the published isoTOP-ABPP protocol^30.
(§6) IA-probe labeled peptides were identified by SEQUEST2 and DTASelect3, and the quantification of heavy/light ratios (isoTOP-ABPP ratios, R) was performed by an in-house software (CIMAGE) as previously described. […]

[2] = molecular target: T2, MAP2K6 (Homo sapiens, UniProt P52564); settings: 100 μM LDE, 60 min; peptide MC*DFGISGYLVDSVAK
T2 construct: directly in native proteomes; endogenous in cells; host or cells: MDA-MB-231
T2 sequence (P52564 1-334): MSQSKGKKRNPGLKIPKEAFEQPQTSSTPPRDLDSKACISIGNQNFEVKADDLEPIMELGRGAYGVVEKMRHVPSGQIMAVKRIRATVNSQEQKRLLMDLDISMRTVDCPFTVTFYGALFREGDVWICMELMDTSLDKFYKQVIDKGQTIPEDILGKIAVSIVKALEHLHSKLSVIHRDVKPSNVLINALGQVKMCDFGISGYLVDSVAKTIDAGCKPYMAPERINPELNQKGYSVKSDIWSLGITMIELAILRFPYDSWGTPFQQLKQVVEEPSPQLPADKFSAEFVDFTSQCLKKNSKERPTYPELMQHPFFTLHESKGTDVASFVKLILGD
Description: as §1, §2, §3, §4, §5, §6

[3] = molecular target: T3, CHRAC1 (Homo sapiens, UniProt Q9NRG0); settings: 100 μM LDE, 60 min; peptide ATELFVQC*LATYSYR
T3 construct: directly in native proteomes; endogenous in cells; host or cells: MDA-MB-231
T3 sequence (Q9NRG0 1-131): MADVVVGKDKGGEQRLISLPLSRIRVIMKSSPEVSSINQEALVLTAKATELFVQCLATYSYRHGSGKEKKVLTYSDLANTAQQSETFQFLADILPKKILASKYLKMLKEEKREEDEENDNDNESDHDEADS
Description: as §1, §2, §3, §4, §5, §6

[4] = molecular target: T4, HPCA (Homo sapiens, UniProt P84074); settings: 100 μM LDE, 60 min; peptide LLQC*DPSSASQF
T4 construct: directly in native proteomes; endogenous in cells; host or cells: MDA-MB-231
Description: as §1, §2, §3, §4, §5, §6

[5] = molecular target: T5, PEC1 (Homo sapiens, UniProt O75521); settings: 100 μM LDE, 60 min; peptide WLSDEC*TNAVVNFLSR
T5 construct: directly in native proteomes; endogenous in cells; host or cells: MDA-MB-231
T5 sequence (O75521 39-394): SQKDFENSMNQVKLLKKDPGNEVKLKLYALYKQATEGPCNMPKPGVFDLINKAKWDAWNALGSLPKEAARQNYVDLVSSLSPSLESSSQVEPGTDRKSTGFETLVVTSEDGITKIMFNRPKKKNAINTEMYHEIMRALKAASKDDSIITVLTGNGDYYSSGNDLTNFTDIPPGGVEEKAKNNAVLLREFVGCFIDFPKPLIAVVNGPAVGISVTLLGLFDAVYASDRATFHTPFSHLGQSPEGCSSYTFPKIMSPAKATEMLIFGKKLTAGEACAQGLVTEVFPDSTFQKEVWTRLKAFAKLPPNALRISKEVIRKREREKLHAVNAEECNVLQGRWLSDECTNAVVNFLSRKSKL
Description: as §1, §2, §3, §4, §5, §6

SMILES: CCCCCCCCCCCCC/C=C/C=O [2-HD, 2-trans-hexadecenal]
- R value (isoTOP-ABPP ratio heavy/light) for IA-labeled cysteine of PSMB8 [1]: 1.05
- R value (isoTOP-ABPP ratio heavy/light) for IA-labeled cysteine of MAP2K6 [2]: 1.15
- R value (isoTOP-ABPP ratio heavy/light) for IA-labeled cysteine of CHRAC1 [3]: 1.06
- R value (isoTOP-ABPP ratio heavy/light) for IA-labeled cysteine of HPCA [4]: 1.13
- R value (isoTOP-ABPP ratio heavy/light) for IA-labeled cysteine of PEC1 [5]: 1.06

SMILES: CCCCCC(O)/C=C/C=O (stereo not drawn) [4-HNE, 4-Hydroxynonenal]
- R value (isoTOP-ABPP ratio heavy/light) for IA-labeled cysteine of PSMB8 [1]: 1.19
- R value (isoTOP-ABPP ratio heavy/light) for IA-labeled cysteine of MAP2K6 [2]: 1.9
- R value (isoTOP-ABPP ratio heavy/light) for IA-labeled cysteine of CHRAC1 [3]: 1.94
- R value (isoTOP-ABPP ratio heavy/light) for IA-labeled cysteine of HPCA [4]: 2.17
- R value (isoTOP-ABPP ratio heavy/light) for IA-labeled cysteine of PEC1 [5]: 1.86

SMILES: CCCCC/C=C/C=C1/C(=O)C=C[C@@H]1C/C=C\CCCC(=O)O [PGJ2, 15-deoxy-Δ12,14-prostaglandin J2]
- R value (isoTOP-ABPP ratio heavy/light) for IA-labeled cysteine of PSMB8 [1]: 5.86
- R value (isoTOP-ABPP ratio heavy/light) for IA-labeled cysteine of MAP2K6 [2]: 7.43
- R value (isoTOP-ABPP ratio heavy/light) for IA-labeled cysteine of CHRAC1 [3]: 12.32
- R value (isoTOP-ABPP ratio heavy/light) for IA-labeled cysteine of HPCA [4]: 7.21
- R value (isoTOP-ABPP ratio heavy/light) for IA-labeled cysteine of PEC1 [5]: 8.23
